Assay results reported in ChEMBL document CHEMBL3988442, “University of Dundee, Small-Polar-MMV Screening Library” (2021).
Where “and” joins values, the source holds several entries; their conditions need not be identical. Identical values can stand only once.

Assays:
[1] = biological target: Polyketide synthase Pks13 (Mycobacterium tuberculosis (strain ATCC 25618 / H37Rv), UniProt I6X8D2); assay: Mycobacterium tuberculosis Polyketide synthase 13 Thioesterase (PKS13); format: functional
[2] = tested on: Mycobacterium tuberculosis; assay: Cornell M. t heat shock assay; format: functional, organism-based; conditions: for IC50: Mycobacterium tuberculosis
[3] = In vitro enzyme assay to detect hydrolysis of chlorophenol red-beta-D-[…] directly proportional to the number of Toxoplasma stably expressing beta-galactosidase; format: functional, organism-based, Toxoplasma gondii; conditions: for IC50: Toxoplasma gondii
[4] = biological target: T1, Coenzyme A biosynthesis bifunctional protein CoaBC (Mycobacterium tuberculosis (strain ATCC 25618 / H37Rv), UniProt P9WNZ1); assay: Biomol Green assay for MtCoaBC inhibitor, OD650 read; format: functional
T1 sequence (P9WNZ1 whole entry): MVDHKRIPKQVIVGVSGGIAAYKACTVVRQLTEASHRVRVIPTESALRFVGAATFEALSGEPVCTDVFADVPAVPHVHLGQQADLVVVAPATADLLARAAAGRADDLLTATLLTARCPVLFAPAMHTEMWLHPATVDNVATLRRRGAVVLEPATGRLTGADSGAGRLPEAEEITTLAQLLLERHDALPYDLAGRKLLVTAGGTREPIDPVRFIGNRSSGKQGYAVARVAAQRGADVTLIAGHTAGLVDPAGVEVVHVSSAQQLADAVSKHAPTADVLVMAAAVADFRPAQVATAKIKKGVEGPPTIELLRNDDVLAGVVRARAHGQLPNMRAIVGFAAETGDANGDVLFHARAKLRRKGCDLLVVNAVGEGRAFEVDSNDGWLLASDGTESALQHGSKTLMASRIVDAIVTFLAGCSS

[5] = microbe, parasite or virus in culture; conditions: Mycobacterium tuberculosis, 72 h, read-out: pIC50 (converted)
[6] = microbe, parasite or virus in culture; conditions: Mycobacterium tuberculosis, 96 h, read-out: pIC50 (converted)
Plasmodium falciparum = assay: Calibr Malaria Delayed Death Assay SOP; format: functional, organism-based; conditions: for IC50: Plasmodium falciparum
Histidine--tRNA ligase = biological target: T2, Histidine--tRNA ligase (Leishmania infantum, UniProt A4I591); assay: Leishmania infantum Histidine tRNA synthetase (LdHisRS); format: functional
T2 sequence (A4I591 whole entry): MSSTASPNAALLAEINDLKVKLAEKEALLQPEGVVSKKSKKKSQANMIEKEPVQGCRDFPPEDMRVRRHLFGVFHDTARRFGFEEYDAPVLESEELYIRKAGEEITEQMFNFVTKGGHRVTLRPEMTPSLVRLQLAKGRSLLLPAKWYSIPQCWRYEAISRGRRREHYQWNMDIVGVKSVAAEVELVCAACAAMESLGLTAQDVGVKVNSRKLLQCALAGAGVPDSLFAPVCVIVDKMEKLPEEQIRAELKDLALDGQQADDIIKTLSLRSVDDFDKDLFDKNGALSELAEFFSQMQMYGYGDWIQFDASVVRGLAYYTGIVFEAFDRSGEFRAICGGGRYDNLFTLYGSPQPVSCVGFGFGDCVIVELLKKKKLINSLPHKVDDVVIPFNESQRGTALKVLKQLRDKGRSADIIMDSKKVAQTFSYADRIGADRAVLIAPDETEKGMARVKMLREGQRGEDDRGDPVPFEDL

Leishmania donovani = assay: Leishmania intramacrophage assay; format: functional, organism-based; conditions: for IC50: Leishmania donovani
ClpP1P2 = ClpP1P2 (Mycobacterium tuberculosis (strain ATCC 25618 / H37Rv), UniProt P9WPC3+P9WPC5); assay: in vitro assay to detect presence of AMC directly proportional to the activity of ClpP1P2. GHDDI collaboration.; format: functional
Wolbachia pipientis = assay: Anti-Wolbachia Cell-Based Screen; format: functional; conditions: for IC50: Wolbachia pipientis
Lysine--tRNA ligase = Lysine--tRNA ligase (Plasmodium falciparum (isolate 3D7), UniProt Q8IDJ8); assay: Pf-KRS-1 (Lysyl-RNA Synthetase-1, KRS-1, cytosolic KRS) from Plasmodium falciparum. Inhibitor assay, 384 well plate, luminescence read.; format: functional
Tryptophan--tRNA ligase = Tryptophan--tRNA ligase (Mycobacterium tuberculosis (strain ATCC 25618 / H37Rv), UniProt P9WFT3); assay: Biochemical assay for Mt-TrpRS; format: functional

**Q.** Which results are given for `c1ccc2oc(CCCN3CCCCC3Cn3cncn3)nc2c1` (stereo not drawn)?
**A.** IC50 [1]: > 100 µM; IC50 [2]: > 100 µM

**Q.** What does the source list for `Cc1ccc(CN(CCCn2ccnc2)Cc2cc(F)ccc2F)s1.O=C(O)CC(O)(CC(=O)O)C(=O)O`?
**A.** pIC50 [2]: 4.62; IC50 [2]: 18.9 µM; IC50 [3]: 7.16 µM

**Q.** With `CC(C)C(NC(=O)c1cnc(N2CCOCC2)nc1)c1cccs1` (stereo not drawn) as the molecule, how does the IC50 [4] read?
**A.** > 30.2 µM

**Q.** And the IC50 [2]?
**A.** 48.2 µM

**Q.** And the IC50 [5]?
**A.** 44.9 µM

**Q.** And the IC50 [6]?
**A.** 48.9 µM

**Q.** Which results are given for `Cc1nn(C)c(C)c1CCn1cncc1-c1ccc2c(c1)CC(C)N2C.Cl` (stereo not drawn)?
**A.** pIC50 (Plasmodium falciparum): 5.741; IC50 (Plasmodium falciparum): 1.72 µM; IC50 (Histidine--tRNA ligase): 43.1 µM and 43 µM; IC50 [2]: > 100 µM; IC50 (Leishmania donovani): > 50.1 µM

**Q.** Which results are given for `Cc1cccc(CNC(Cc2ccsc2)c2nc(C)c(C)s2)n1.Cl` (stereo not drawn)?
**A.** pIC50 [2]: 5.24; IC50 [2]: 8.25 µM; IC50 (ClpP1P2): > 100 µM; IC50 [5]: 31.7 µM; IC50 [6]: > 50.1 µM

**Q.** With `CC(C)C[C@H](N)COc1cccc(F)c1Oc1cccc(Cl)c1` as the molecule, how does the IC50 [2] read?
**A.** 13.9 µM

**Q.** And the IC50 (ClpP1P2)?
**A.** > 100 µM

**Q.** And the IC50 [5]?
**A.** 18.5 µM

**Q.** What about the IC50 [6] of the same molecule?
**A.** 22.6 µM

**Q.** For `Cc1cnc(Nc2cccc(C3CCCN3Cc3cn(C)nc3C)n2)s1` (stereo not drawn), which pIC50 (Wolbachia pipientis) is on record?
**A.** 5.174

**Q.** What about the IC50 (Wolbachia pipientis) of the same molecule?
**A.** 5.37 µM

**Q.** What about the IC50 [4] of the same molecule?
**A.** > 30.2 µM

**Q.** And the pIC50 [2]?
**A.** 5.045 and 4.742

**Q.** Which IC50 [2] does the source give for `Cn1c(CCN2CCN(c3ccc(O)cc3)CC2)nc2ccccc21` here?
**A.** 68.5 µM

**Q.** And the pIC50 [3]?
**A.** 4.61

**Q.** What about the IC50 [3] of the same molecule?
**A.** 23.8 µM

**Q.** Which pIC50 (Wolbachia pipientis) does the source give for `CCN(CC)S(=O)(=O)N1CCCC1c1cccc(Nc2ncc(C)s2)n1` (stereo not drawn) here?
**A.** 5.165

**Q.** What about the IC50 (Wolbachia pipientis) of the same molecule?
**A.** 8.99 µM

**Q.** And the IC50 [2]?
**A.** > 100 µM

**Q.** Which IC50 (Histidine--tRNA ligase) does the source give for `COc1ccc(-n2cc(CCO)cn2)cc1C` here?
**A.** 17.7 µM and 11.1 µM

**Q.** What about the IC50 [4] of the same molecule?
**A.** > 30.2 µM

**Q.** What about the IC50 [2] of the same molecule?
**A.** 41.4 µM

**Q.** What about the IC50 (Lysine--tRNA ligase) of the same molecule?
**A.** > 50.1 µM

**Q.** With `CS(=O)(=O)N1CCCC1c1cccc(Nc2nccs2)n1` (stereo not drawn) as the molecule, how does the pIC50 (Wolbachia pipientis) read?
**A.** 5.083

**Q.** And the IC50 (Wolbachia pipientis)?
**A.** 9.08 µM

**Q.** And the IC50 [2]?
**A.** > 100 µM

**Q.** Which IC50 [4] does the source give for `CC(Cn1cccn1)NCc1csc(Cc2ccccc2)n1` (stereo not drawn) here?
**A.** > 30.2 µM

**Q.** And the IC50 [2]?
**A.** 12.7 µM

**Q.** Which results are given for `Cc1ccc(Oc2cc(F)ccc2O[C@@H]2CCC[C@@H](N)[C@H]2O)cc1`?
**A.** pIC50 (Plasmodium falciparum): 6.291; IC50 (Plasmodium falciparum): 0.584 µM; pIC50 [2]: 4.493; IC50 [2]: 33.6 µM; IC50 [3]: 8.59 µM; IC50 [5]: 39.4 µM; pIC50 (Leishmania donovani): 4.961; IC50 (Leishmania donovani): 6.4 µM; IC50 [6]: 47.8 µM

**Q.** With `COc1cccc(CNCc2nc3ccccc3c(=O)[nH]2)c1` as the molecule, how does the IC50 [2] read?
**A.** 67.4 µM

**Q.** And the IC50 (Tryptophan--tRNA ligase)?
**A.** > 195 µM

**Q.** For `O=C(CN1CCOC(CNc2cccnn2)C1)NCc1cccs1` (stereo not drawn), which IC50 (Wolbachia pipientis) is on record?
**A.** > 10 µM

**Q.** And the IC50 [2]?
**A.** > 100 µM

**Q.** Which IC50 [2] does the source give for `Cc1ccc(Oc2c(F)cccc2OC[C@@H](N)CC(C)C)cc1` here?
**A.** 25.1 µM

**Q.** What about the IC50 [5] of the same molecule?
**A.** 23.4 µM

**Q.** What about the pIC50 (Leishmania donovani) of the same molecule?
**A.** 5.171

**Q.** What about the IC50 (Leishmania donovani) of the same molecule?
**A.** 12.4 µM

**Q.** And the IC50 [6]?
**A.** 25.5 µM

**Q.** With `CN(C)[C@@H]1CN(Cc2ccccc2O)C[C@H]1c1cn(C)c2ccccc12` as the molecule, how does the IC50 [2] read?
**A.** 28.3 µM

**Q.** What about the IC50 (ClpP1P2) of the same molecule?
**A.** > 100 µM

**Q.** For `Fc1cccc(Nc2nc(N3CCCC3)nc3c2CNCC3)c1`, which IC50 [2] is on record?
**A.** 25.8 µM

**Q.** What about the IC50 [5] of the same molecule?
**A.** 23.6 µM

**Q.** And the pIC50 (Leishmania donovani)?
**A.** 5.271

**Q.** What about the IC50 (Leishmania donovani) of the same molecule?
**A.** 3.49 µM

**Q.** And the IC50 [6]?
**A.** 18.8 µM

**Q.** Which results are given for `Cc1csc(C(Cc2ccsc2)NC(=O)CN(C)Cc2ccccn2)n1` (stereo not drawn)?
**A.** IC50 [2]: > 100 µM; IC50 (ClpP1P2): > 100 µM

**Q.** For `CC(C)N(C(=O)Cn1c(-c2ccco2)cc2cccnc21)C(C)C`, which IC50 [2] is on record?
**A.** > 100 µM

**Q.** What about the IC50 (ClpP1P2) of the same molecule?
**A.** > 100 µM

**Q.** With `CCc1cc(=O)[nH]c(NC2CCN(S(=O)(=O)c3ccccc3)CC2)n1` as the molecule, how does the IC50 [4] read?
**A.** > 30.2 µM

**Q.** And the IC50 [2]?
**A.** > 100 µM

**Q.** Which results are given for `CCN(CC)c1nc(Nc2cccc(C(C)O)c2)nc2ccccc12` (stereo not drawn)?
**A.** IC50 [2]: 12.2 µM; IC50 (ClpP1P2): > 100 µM; pIC50 [3]: 5.586; IC50 [3]: 2.08 µM; IC50 [5]: 25.7 µM; IC50 [6]: 22.9 µM

**Q.** With `CC1(c2ccccc2)CCCN(Cc2cncn2C2CCCC2)C1` (stereo not drawn) as the molecule, how does the IC50 [2] read?
**A.** 14.4 µM

**Q.** What about the IC50 [3] of the same molecule?
**A.** 4.15 µM

**Q.** And the IC50 [5]?
**A.** 20.4 µM

**Q.** What about the IC50 [6] of the same molecule?
**A.** 18.5 µM

**Q.** With `c1ccc(CCN2CCCC2c2cccc(Nc3nccs3)n2)cc1` (stereo not drawn) as the molecule, how does the pIC50 (Wolbachia pipientis) read?
**A.** 5.678

**Q.** What about the IC50 (Wolbachia pipientis) of the same molecule?
**A.** 1.09 µM

**Q.** What about the IC50 [4] of the same molecule?
**A.** > 30.2 µM

**Q.** What about the pIC50 [2] of the same molecule?
**A.** 4.565

**Q.** And the IC50 [2]?
**A.** 38.9 µM

**Q.** For `Cc1cccc(CN2CCCC2c2cccc(Nc3nccs3)n2)c1` (stereo not drawn), which pIC50 (Wolbachia pipientis) is on record?
**A.** 5.856

**Q.** And the IC50 (Wolbachia pipientis)?
**A.** 1.87 µM

**Q.** What about the pIC50 (Plasmodium falciparum) of the same molecule?
**A.** 5.988

**Q.** What about the IC50 (Plasmodium falciparum) of the same molecule?
**A.** 1.01 µM

**Q.** What about the pIC50 [2] of the same molecule?
**A.** 5.755

**Q.** What about the IC50 [2] of the same molecule?
**A.** 2.41 µM

**Q.** Which pIC50 (Plasmodium falciparum) does the source give for `Cc1ncc(CNCCO)c2cc(C(=O)c3ccc(Br)cc3)oc12.Cl` here?
**A.** 6.356

**Q.** What about the IC50 (Plasmodium falciparum) of the same molecule?
**A.** 0.541 µM

**Q.** What about the IC50 [2] of the same molecule?
**A.** > 49 µM

**Q.** And the IC50 [3]?
**A.** 9.37 µM

**Q.** Which pIC50 [2] does the source give for `COc1ccc(F)c(CN(CCCn2ccnc2)Cc2ccc(C)s2)c1.O=C(O)CC(O)(CC(=O)O)C(=O)O` here?
**A.** 4.599

**Q.** What about the IC50 [2] of the same molecule?
**A.** 27.4 µM

**Q.** What about the IC50 [3] of the same molecule?
**A.** 7.3 µM

**Q.** Which results are given for `Oc1cc(C2CCCCN2Cc2cccs2)nc(-c2ccccn2)n1` (stereo not drawn)?
**A.** IC50 [2]: 17.3 µM; IC50 [3]: 2.42 µM
